Source: the supplement of paper PMC10331698
± gives the standard deviation of the averaged measurements.

Columns and labels:
Assay in all cases: level (log10 ratio to DMSO vehicle control); higher = higher biomarker level / cell amount than vehicle control
[1] = compound: C=C(C)C(=O)OCCC(F)(F)C(F)(F)C(F)(F)C(F)(F)C(F)(F)C(F)(F)F [6:2 Fluorotelomer methacrylate]; settings: in DMSO
Experimental: (§1)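 BioMAP Diversity Plus panel of 12 human primary cell co-culture systems (3C, 4H, LPS, SAg, BT, BF4T, BE3C, CASM3C, HDF3CGF, KF3CT, MyoF, Mphg). Compounds were added 1 h before stimulation and left for 24 h (MyoF 48 h; BT 72 h for soluble read-outs or 6 d for IgG). Biomarkers were read by ELISA, cytotoxicity by SRB, PBMC viability and proliferation by Alamar Blue. Each well value was divided by the mean of 8 DMSO control wells on the same plate and log10 transformed; duplicate blinded samples were tested at 4 concentrations.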

[2] = compound: C=CC(=O)OCC(F)(F)C(F)(F)C(F)(F)COC(=O)C=C [1H,1H,5H,5H-Perfluoro-1,5-pentanediol diacrylate]; settings: 6700 nM; in DMSO
Experimental: as §1

[3] = compound: COC(=O)C(F)(F)C(F)(F)OC(F)(C(F)(F)F)C(F)(F)OC(F)=C(F)F [Methyl perfluoro(3-(1-ethenyloxypropan-2-yloxy)propanoate)]; settings: in DMSO
Experimental: as §1

[4] = compound: FC(F)(F)C(F)(F)C(F)(F)C(F)(F)C(F)(F)C(F)(F)C(F)(F)I [1-Iodopentadecafluoroheptane]; settings: in DMSO
Experimental: as §1

[5] = compound: FC(F)(F)C(F)(F)C(F)(F)C(F)(F)C(F)(F)C(F)(F)CC1CO1 [3-(Perfluorohexyl)-1,2-epoxypropane]; settings: in DMSO
Experimental: as §1

[6] = compound: FC(F)(F)C(F)(F)C(F)(F)CC1CO1 [1H,1H-Heptafluorobutyl epoxide]; settings: in DMSO
Experimental: as §1

Heptafluorobutyl iodide = compound: FC(F)(F)C(F)(F)C(F)(F)CI [Heptafluorobutyl iodide]; settings: in DMSO
Experimental: as §1

[7] = compound: FC(F)(F)C(F)(F)CNCC(F)(F)C(F)(F)F [Bis(1H,1H-perfluoropropyl)amine]; settings: in DMSO
Experimental: as §1

Octafluoroadipamide = compound: NC(=O)C(F)(F)C(F)(F)C(F)(F)C(F)(F)C(N)=O [Octafluoroadipamide]; settings: in DMSO
Experimental: as §1

Nonafluoropentanamide = compound: NC(=O)C(F)(F)C(F)(F)C(F)(F)C(F)(F)F [Nonafluoropentanamide]; settings: in DMSO
Experimental: as §1

[8] = compound: NC(=O)C(F)(F)C(F)(F)C(F)(F)C(F)F; settings: in DMSO
Experimental: as §1

[9] = compound: NS(=O)(=O)C(F)(F)C(F)(F)C(F)(F)C(F)(F)C(F)(F)C(F)(F)F [Perfluorohexanesulfonamide]; settings: in DMSO
Experimental: as §1

[10] = compound: O=C(O)C(F)(F)C(F)(F)C(F)(F)C(F)(F)C(F)(F)C(F)(F)C(F)(F)C(F)(F)C(F)(F)C(F)F [11-H-Perfluoroundecanoic acid]; settings: in DMSO
Experimental: as §1

[11] = compound: O=C(O)C=CC(F)(C(F)(F)F)C(F)(F)F [3-(Perfluoroisopropyl)-2-propenoic acid]; settings: in DMSO
Experimental: as §1

[12] = compound: O=S(=O)(Cl)C(F)(F)C(F)(F)C(F)(F)C(F)(F)C(F)(F)C(F)(F)C(F)(F)C(F)(F)F [Perfluoro-1-octanesulfonyl chloride]; settings: in DMSO
Experimental: as §1

[13] = compound: O=S(=O)(F)C(F)(F)C(F)(F)C(F)(F)C(F)(F)C(F)(F)C(F)(F)C(F)(F)C(F)(F)F [Perfluorooctanesulfonyl fluoride]; settings: in DMSO
Experimental: as §1

[14] = compound: O=S(=O)(O)C(F)(F)C(F)(F)C(F)(F)C(F)(F)C(F)(F)C(F)(F)C(F)(F)C(F)(F)C(F)(F)C(F)(F)F [Sodium perfluorodecanesulfonate]; settings: in DMSO
Experimental: as §1

[15] = compound: O=S(=O)(O)CCC(F)(F)C(F)(F)C(F)(F)C(F)(F)C(F)(F)C(F)(F)F [6:2 Fluorotelomer sulfonic acid]; settings: in DMSO
Experimental: as §1

Hexafluoroamylene glycol = compound: OCC(F)(F)C(F)(F)C(F)(F)CO [Hexafluoroamylene glycol]; settings: in DMSO
Experimental: as §1

## SAg:Proliferation
[1]; 6700 nM
  level (log10): -0.027 ± 0.034
[1]; 20000 nM
  level (log10): -0.0435 ± 0.042
[1]; 60000 nM
  level (log10): -0.0375 ± 0.03
[2]
  level (log10): -0.421 ± 0.035
[3]; 6700 nM
  level (log10): -0.003 ± 0.018
[3]; 20000 nM
  level (log10): 0.0525 ± 0.057
[4]; 6700 nM
  level (log10): 0.0055 ± 0.043
[4]; 20000 nM
  level (log10): -0.0105 ± 0.026
[5]; 6700 nM
  level (log10): 0.013 ± 0.014
[5]; 20000 nM
  level (log10): -0.0105 ± 0.019
[5]; 60000 nM
  level (log10): 0.013 ± 0.051
[6]; 6700 nM
  level (log10): -0.0295 ± 0.059
[6]; 20000 nM
  level (log10): 0.017 ± 0.059
[6]; 60000 nM
  level (log10): 0.055 ± 0.054
Heptafluorobutyl iodide; 6700 nM
  level (log10): -0.056 ± 0.037
Heptafluorobutyl iodide; 20000 nM
  level (log10): 0.029 ± 0.028
Heptafluorobutyl iodide; 60000 nM
  level (log10): -0.072 ± 0.0042
[7]; 6700 nM
  level (log10): -0.0275 ± 0.012
[7]; 20000 nM
  level (log10): -0.0025 ± 0.052
[7]; 60000 nM
  level (log10): 0.0295 ± 0.076
Octafluoroadipamide; 6700 nM
  level (log10): 0.022 ± 0.035
Octafluoroadipamide; 20000 nM
  level (log10): -0.0255 ± 0.005
Octafluoroadipamide; 60000 nM
  level (log10): 0.033 ± 0.0099
Nonafluoropentanamide; 6700 nM
  level (log10): -0.01 ± 0.052
Nonafluoropentanamide; 20000 nM
  level (log10): -0.05 ± 0.034
Nonafluoropentanamide; 60000 nM
  level (log10): -0.0945 ± 0.1
[8]; 6700 nM
  level (log10): -0.0135 ± 0.018
[8]; 20000 nM
  level (log10): 0.0105 ± 0.0064
[8]; 60000 nM
  level (log10): 0.033 ± 0.018
[9]; 6700 nM
  level (log10): 0.0045 ± 0.0035
[9]; 20000 nM
  level (log10): -0.016 ± 0.013
[9]; 60000 nM
  level (log10): -0.0695 ± 0.019
[10]; 6700 nM
  level (log10): -0.0145 ± 0.03
[10]; 20000 nM
  level (log10): 0.019 ± 0.0071
[11]; 6700 nM
  level (log10): 0.009 ± 0.016
[11]; 20000 nM
  level (log10): -0.008 ± 0.037
[11]; 60000 nM
  level (log10): 0.008 ± 0.04
[12]; 6700 nM
  level (log10): 0.0235 ± 0.044
[12]; 20000 nM
  level (log10): 0.0205 ± 0.04
[12]; 60000 nM
  level (log10): 0.0395 ± 0.036
[13]; 6700 nM
  level (log10): -0.0275 ± 0.0035
[13]; 20000 nM
  level (log10): -0.0095 ± 0.049
[13]; 60000 nM
  level (log10): 0.0025 ± 0.019
[14]; 1500 nM
  level (log10): -0.0065 ± 0.0035
[14]; 4400 nM
  level (log10): -0.006 ± 0.0042
[14]; 13000 nM
  level (log10): -0.024 ± 0.034
[14]; 40000 nM
  level (log10): -0.023 ± 0.035
[15]; 6700 nM
  level (log10): -0.019 ± 0.027
[15]; 20000 nM
  level (log10): -0.0255 ± 0.023
[15]; 60000 nM
  level (log10): -0.0225 ± 0.0035
Hexafluoroamylene glycol; 6700 nM
  level (log10): -0.024 ± 0.041
Hexafluoroamylene glycol; 20000 nM
  level (log10): -0.0395 ± 0.013
Hexafluoroamylene glycol; 60000 nM
  level (log10): -0.039 ± 0.0042

## CASM3C:Proliferation
[1]; 6700 nM
  level (log10): -0.0395 ± 0.046
[1]; 20000 nM
  level (log10): -0.042 ± 0.031
[1]; 60000 nM
  level (log10): 0.0115 ± 0.0092
[2]
  level (log10): -0.289 ± 0.086
[3]; 6700 nM
  level (log10): -0.012 ± 0.065
[3]; 20000 nM
  level (log10): 0.036 ± 0.05
[4]; 6700 nM
  level (log10): -0.003 ± 0.027
[4]; 20000 nM
  level (log10): -0.045 ± 0.0042
[5]; 6700 nM
  level (log10): 0.001 ± 0.021
[5]; 20000 nM
  level (log10): -0.0035 ± 0.005
[5]; 60000 nM
  level (log10): 0.027 ± 0.027
[6]; 6700 nM
  level (log10): -0.0175 ± 0.021
[6]; 20000 nM
  level (log10): -0.046 ± 0.05
[6]; 60000 nM
  level (log10): -0.026 ± 0.064
Heptafluorobutyl iodide; 6700 nM
  level (log10): -0.008 ± 0.0085
Heptafluorobutyl iodide; 20000 nM
  level (log10): 0.0235 ± 0.018
Heptafluorobutyl iodide; 60000 nM
  level (log10): 0.008 ± 0.024
[7]; 6700 nM
  level (log10): -0.115 ± 0.024
[7]; 20000 nM
  level (log10): 0.0135 ± 0.037
[7]; 60000 nM
  level (log10): -0.0005 ± 0.076
Octafluoroadipamide; 6700 nM
  level (log10): -0.029 ± 0.023
Octafluoroadipamide; 20000 nM
  level (log10): -0.0165 ± 0.05
Octafluoroadipamide; 60000 nM
  level (log10): -0.037 ± 0.051
Nonafluoropentanamide; 6700 nM
  level (log10): -0.032 ± 0.058
Nonafluoropentanamide; 20000 nM
  level (log10): -0.017 ± 0.03
Nonafluoropentanamide; 60000 nM
  level (log10): -0.0505 ± 0.035
[8]; 6700 nM
  level (log10): 0.002 ± 0.071
[8]; 20000 nM
  level (log10): -0.0145 ± 0.023
[8]; 60000 nM
  level (log10): 0.014 ± 0.025
[9]; 6700 nM
  level (log10): 0.0015 ± 0.013
[9]; 20000 nM
  level (log10): 0.0285 ± 0.03
[9]; 60000 nM
  level (log10): 0.0255 ± 0.018
[10]; 6700 nM
  level (log10): -0.0495 ± 0.015
[10]; 20000 nM
  level (log10): 0.0005 ± 0.043
[11]; 6700 nM
  level (log10): 0.0035 ± 0.019
[11]; 20000 nM
  level (log10): -0.009 ± 0.0085
[11]; 60000 nM
  level (log10): 0.009 ± 0.059
[12]; 6700 nM
  level (log10): -0.011 ± 0.078
[12]; 20000 nM
  level (log10): 0.007 ± 0.031
[12]; 60000 nM
  level (log10): -0.009 ± 0.011
[13]; 6700 nM
  level (log10): -0.0125 ± 0.044
[13]; 20000 nM
  level (log10): -0.0265 ± 0.032
[13]; 60000 nM
  level (log10): 0.0095 ± 0.0064
[14]; 1500 nM
  level (log10): 0.017 ± 0.0057
[14]; 4400 nM
  level (log10): 0.0585 ± 0.061
[14]; 13000 nM
  level (log10): -0.006 ± 0.059
[14]; 40000 nM
  level (log10): 0.0275 ± 0.03
[15]; 6700 nM
  level (log10): -0.0095 ± 0.029
[15]; 20000 nM
  level (log10): 0.024 ± 0.033
[15]; 60000 nM
  level (log10): 0.026 ± 0.018
Hexafluoroamylene glycol; 6700 nM
  level (log10): -0.0005 ± 0.0021
Hexafluoroamylene glycol; 20000 nM
  level (log10): -0.0235 ± 0.0092
Hexafluoroamylene glycol; 60000 nM
  level (log10): 0.007 ± 0.0014
